Consider one compound from PMC6150735, “Molecular Docking-Based Design and Development of a Highly Selective Probe Substrate for UDP-glucuronosyltransferase 1A10” (Molecular Pharmaceutics, 2018).

The subject of series [1] is human intestinal microsomes (HIM). Kind of series: Glucuronidation by human intestinal microsomes (HIM). The class given is in vitro ADME. A digest of the protocol: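 Pooled microsomes with 12.5 μg/mL alamethicin in 100 mM Tris-HCl pH 7.4, 2.5 mM MgCl2, 0.5 mM UDPGA and 0-15 μM 7-hydroxycoumarin substrate at 37 °C. Fluorescence decline (ex 405/em 460 nm) read every 2 min for 40 min; rate from linear slope via standard curve, no-enzyme blank subtracted.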

A short description of series [2]: Absorbance spectra of coumarin derivatives. The class given is physicochemical. The following applies: 10 μM, 100 mM Tris–HCl pH 7.4, 10% dimethyl sulfoxide. The procedure:
The absorbance spectra of 10 μM coumarin derivatives at 100 mM Tris–HCl pH 7.4 containing 10% dimethyl sulfoxide were measured using a Hitachi U-2000 Spectrophotometer (Tokyo, Japan). Excitation and emission fluorescence spectra of 0.1 μM coumarin derivatives in 100 mM Tris-HCl pH 7.4 were measured using a Shimadzu RF-5000 spectrophotofluorometer (Tokyo, Japan). The excitation spectra was from 200 to 420 at 460 nm emission and the emission spectra was from 400 to 600 at 390 nm excitation (data in Supplementary Table S1 and Figures S1 and S2). The effect of pH on fluorescence intensity was determined at 405 nm excitation and 460 nm emission, in the presence of 1.5% trichloroacetic acid, 100 mM phosphate buffers at pH 5, 6, 7, 8, and 9, or 1.6 M glycine–NaOH pH 10.4.

In another series the target is T1, UGT1A10 (Homo sapiens, UniProt Q9HAW8).
T1 construct: His-tag; made in house; host or cells: baculovirus-infected insect cells
T1 sequence (Q9HAW8 26-530): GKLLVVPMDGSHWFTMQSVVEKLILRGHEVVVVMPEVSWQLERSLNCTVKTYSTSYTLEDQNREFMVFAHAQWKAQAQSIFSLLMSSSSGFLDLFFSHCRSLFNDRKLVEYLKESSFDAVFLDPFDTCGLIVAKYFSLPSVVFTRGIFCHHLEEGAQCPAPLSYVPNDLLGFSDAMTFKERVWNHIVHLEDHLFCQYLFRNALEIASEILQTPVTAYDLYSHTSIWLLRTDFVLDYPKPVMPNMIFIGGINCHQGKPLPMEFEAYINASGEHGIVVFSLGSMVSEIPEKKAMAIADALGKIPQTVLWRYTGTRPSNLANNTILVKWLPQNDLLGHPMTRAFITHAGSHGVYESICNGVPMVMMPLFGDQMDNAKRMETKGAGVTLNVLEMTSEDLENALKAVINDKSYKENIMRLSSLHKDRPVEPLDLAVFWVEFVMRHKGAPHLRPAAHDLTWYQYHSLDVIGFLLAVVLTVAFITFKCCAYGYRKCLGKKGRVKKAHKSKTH
Kind of series: Glucuronidation kinetics by recombinant wild-type UGT1A10 (fluorescence decrease, 96-well plate). The class given is biochemical. As to the method: Recombinant human UGTs 1A1, 1A3, 1A6, 1A7, 1A8, 1A9, 1A10, 2A1, 2A2, 2A3, 2B4, 2B10, 2B7, and 2B17 were produced, as His-tagged proteins, in baculovirus-infected insect cells as previously described.[37]−[39] The relative expression level of each of these recombinant UGTs was evaluated by immunodetection, using monoclonal antibody against the His-tag, as described elsewhere.[40] A numeric value of 1.0 was given to the expression level of UGT1A8 and the relative expression level of each of the other UGTs was related to this value. Normalized activities were obtained by dividing the glucuronidation rate values by the relative expression level of the tested UGT. […] The expression levels of the UGTs in the commercial samples could not be determined, so their protein concentration was used to calculate the reaction rate.
The incubation mixtures for glucuronidation assays contained 100 mM Tris-HCl buffer pH 7.4, 2.5 mM MgCl2, 0.5 mM UDPGA, recombinant UGT, or microsomes as the enzyme source and 0–15 μM of the test aglycone substrate. […] In subsequent experiments, the control samples lacked the enzyme source since it gave the highest fluorescence background. […] Fluorescence spectra (excitation 200–420 nm; emission 400–600 nm) or fluorescence decrease at 390 nm excitation and 460 nm emission, were measured in these preliminary experiments, using a Shimadzu RF-5000 spectrophotofluorometer. […]

`O=c1oc2cc(O)ccc2cc1-n1cncn1` [Compound 6, 7-Hydroxy-3-(1H-1,2,4-triazol-1-yl)-2H-chromen-2-one]: the Vmax in series [1] (human intestinal microsomes) is 3.5 (2.9–4.0) μmol/(min * g prot). Moreover, the “Effect of adding albumin on Km and Vmax” value in series [1] (intestinal microsomes, albumin in incubation mixture) is “increased both Km and Vmax values”. In series [2], the Amax is reported as 392 nm and the ε abs was 20 500 cmx1*Mx1. The “Intrinsic glucuronidation clearance (Vmax/Km) by UGT1A10 relative to compounds 1–5” value at UGT1A10 is given as “less than 30%”.
